Read-outs that look alike come from different tables or passages of the source.
What was measured:
[1] = system: HIV-1 Strain B (M046I, I050V); experiment: microbe, parasite or virus in culture; assay type: cell-based
Procedure, shortened: (§1)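 MT4 cells stably carrying an HIV LTR-driven EGFP reporter (150,000 cells/ml) were infected at MOI 0.0025 with or without inhibitor dilutions. Replication was read either as GFP fluorescence on day 3 post-infection or as cell viability by resazurin on day 4.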

[2] = system: HIV-1 Strain C (G048G/V, V082A); experiment: microbe, parasite or virus in culture; assay type: cell-based
Procedure, shortened: as §1

[3] = system: HIV-1 Strain A (M046I, I084V); experiment: microbe, parasite or virus in culture; assay type: cell-based
Procedure, shortened: as §1

HIV-1 IIIB = experiment: 50% HS-Rezazurin: antiviral assay in the presence of 50% human serum, MT-4 cells, resazurin cell viability; assay type: cell-based
Procedure, shortened: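 MT-4 cells infected with HIV-1 IIIB (MOI 0.001 to 0.01 CCID50/cell) for 1 h, washed, then plated onto serial compound dilutions in 50% human serum (10% FCS alternative). After 4 days, EC50 derived from resazurin cell viability.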

[4] = General toxicity assay on mock-infected MT4 cells with CMV-EGFP reporter (CC50); assay type: cell-based; conditions: human
HIV-1 wild-type strain = experiment: General antiviral assay, cell-based virus replication in MT4-LTR-EGFP cells, wild-type strain; conditions: wild-type strain IIIB, MT4-LTR-EGFP cells
Procedure, shortened: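 HIV LTR-driven EGFP reporter MT4 cells (150,000 cells/ml) infected at MOI 0.0025 with or without inhibitor at various concentrations. Read-out either GFP fluorescence on day 3 post-infection or resazurin cell viability on day 4.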

mock-infected MT4 cells = experiment: General toxicity assay on mock-infected MT4 cells with CMV-EGFP reporter (CC50); assay type: cell-based
[5] = Human immunodeficiency virus 1, read-out: B EC50
[6] = Human immunodeficiency virus 1, read-out: C EC50
[7] = Human immunodeficiency virus 1, read-out: A EC50
[8] = Human immunodeficiency virus 1, IIIB, MT4, 96 h
[9] = MT4LTR cells, read-out: TOX-MT4LTR (CC50)
[10] = mock-infected MT4 cells with CMV-EGFP reporter, read-out: TOX-MT4CMV (CC50)
[11] = clinical isolate Strain B, read-out: B EC50
[12] = clinical isolate Strain C, read-out: C EC50
[13] = clinical isolate Strain A, read-out: A EC50

Row | SMILES | EC50 [1, 5] | EC50 [2, 6] | EC50 [3, 7] | EC50 (HIV-1 IIIB; [8]) | CC50 [4, 9] | CC50 [4, 10] | EC50 (HIV-1 wild-type strain; Human immunodeficiency virus 1) | EC50 [1, 11] | EC50 [2, 12] | EC50 [3, 13] | EC50 (HIV-1 IIIB) | CC50 (mock-infected MT4 cells; [9]) | EC50 (HIV-1 wild-type strain) | CC50 (mock-infected MT4 cells; [10])
1 | COC(=O)N[C@H](C(=O)N[C@@H](Cc1ccc(-c2ccc(OC)nc2)cc1)[C@@H](O)C[C@@H](Cc1ccccc1F)C(=O)N[C@H]1c2ccsc2CC[C@H]1O)C(C)(C)C [Compound 93] | 0.6 nM | 0.4 nM | 0.8 nM | 3.5 nM | > 32000 nM | > 32000 nM | 1.3 nM | – | – | – | – | – | – | –
2 | CN(C)c1ccc(-c2ccc(C[C@H](NC(=O)O[C@H]3CO[C@H]4OCC[C@H]43)[C@@H](O)C[C@@H](Cc3ccccc3F)C(=O)N[C@H]3c4cc(Cl)ccc4OC[C@H]3O)cc2)cn1 [Compound 79] | 1 nM | 0.7 nM | 1.1 nM | 12.8 nM | > 32000 nM | – | 1.7 nM | – | – | – | – | – | – | –
3 | COC(=O)N[C@H](C(=O)N[C@@H](Cc1ccc(-c2ccc(OC)nc2)cc1)[C@@H](O)C[C@@H](Cc1ccccc1F)C(=O)N[C@H]1[C@H](C)CCC[C@H]1O)C(C)(C)C [Compound 96] | 0.4 nM | 0.5 nM | 0.7 nM | 2 nM | > 32000 nM | – | 0.9 nM | – | – | – | – | – | – | –
4 | CN(C)c1ccc(-c2ccc(C[C@H](NC(=O)[C@@H](NC(=O)C3(C#N)CC3)C(C)(C)C)[C@@H](O)C[C@@H](Cc3ccccc3F)C(=O)N[C@H]3c4cc(F)ccc4OC[C@H]3O)cc2)cn1 [Compound 53] | 2 nM | 2 nM | 4.1 nM | 9.5 nM | > 32000 nM | – | 2.3 nM | – | – | – | – | – | – | –
5 | COC(=O)N[C@H](C(=O)N[C@@H](Cc1ccc(-c2cnc(C(C)C)s2)cc1)[C@@H](O)C[C@@H](Cc1ccccc1F)C(=O)N[C@H]1c2ccccc2OC[C@H]1O)C(C)(C)C [Compound 38] | 3.6 nM | 2.6 nM | 4.4 nM | 37.9 nM | – | 10000 nM | 7.1 nM | – | – | – | – | – | – | –
6 | COc1ccc(-c2ccc(C[C@H](NC(=O)O[C@H]3CO[C@H]4OCC[C@H]43)[C@@H](O)C[C@@H](Cc3cccc(OC(F)(F)F)c3)C(=O)N[C@H]3c4cc(Cl)ccc4OC[C@H]3O)cc2)cn1 [Compound 73] | – | – | – | – | – | – | – | 4.1 nM | 1.9 nM | 3.7 nM | 9.2 nM | > 32000 nM | 3.3 nM | –
7 | COC(=O)NC(C(=O)NC(Cc1ccc(-c2ccc(OC)nc2)cc1)C(O)CC(Cc1ccccc1F)C(=O)NC1c2cc(Cl)ccc2OCC1O)C(C)(C)C (centres unmarked) [Compound 18] | – | – | – | – | – | – | – | 2 nM | 1.6 nM | 3 nM | 14 nM | > 32000 nM | 2.7 nM | > 32000 nM
8 | COC(=O)NC(C(=O)NC(Cc1ccc(-c2ccc(N(C)C)nc2)cc1)C(O)CC(Cc1ccccc1F)C(=O)NC1c2cc(F)cc(F)c2OCC1O)C(C)(C)C (centres unmarked) [Compound 10] | – | – | – | – | – | – | – | 2.5 nM | 1.7 nM | 4 nM | 20.1 nM | – | 3.2 nM | > 32000 nM
9 | COC(=O)N[C@H](C(=O)N[C@@H](Cc1ccc(-c2ccc(N(C)C)nc2)cc1)[C@@H](O)C[C@@H](Cc1ccccc1F)C(=O)N[C@H]1c2cc(Cl)cc(F)c2OC[C@H]1O)C(C)(C)C [Compound 60] | – | – | – | – | – | – | – | 1.9 nM | 1.2 nM | 2.6 nM | 25.2 nM | 10000 nM | 4.1 nM | –
10 | COC(=O)N[C@H](C(=O)N[C@@H](Cc1ccc(-c2ccc(OC)nc2)cc1)[C@@H](O)C[C@@H](Cc1ccccc1F)C(=O)N[C@H]1c2cccc(F)c2OC[C@H]1O)C(C)(C)C [Compound 50] | – | – | – | – | – | – | – | 1.4 nM | 1.1 nM | 2 nM | 6.9 nM | > 32000 nM | 2.8 nM | –
11 | COC(=O)NC(C(=O)NC(Cc1ccc(-c2cc(C)nc(C3CC3)c2)cc1)C(O)CC(Cc1ccccc1F)C(=O)NC1c2cc(Cl)ccc2OCC1O)C(C)(C)C (centres unmarked) [Compound 21] | – | – | – | – | – | – | – | 3.2 nM | 3.6 nM | 3.8 nM | 34.9 nM | – | 6.1 nM | > 32000 nM
12 | COc1ccc(-c2ccc(C[C@H](NC(=O)O[C@H]3CO[C@H]4OCC[C@H]43)[C@@H](O)C[C@@H](Cc3ccccc3Cl)C(=O)N[C@H]3c4cc(Cl)ccc4OC[C@H]3O)cc2)cn1 [Compound 78] | – | – | – | – | – | – | – | 1.4 nM | 0.9 nM | 1.9 nM | 10.6 nM | > 32000 nM | 2.1 nM | –
13 | COC(=O)NC(C(=O)NC(Cc1ccc(-c2ccc(OC)nc2)cc1)C(O)CC(Cc1cccc(OC)c1)C(=O)NC1c2ccccc2OCC1O)C(C)(C)C (centres unmarked) [Compound 17] | – | – | – | – | – | – | – | 1.2 nM | 1.1 nM | 2 nM | 6.4 nM | – | 1.9 nM | > 32000 nM
14 | Cc1cc(-c2ccc(C[C@H](NC(=O)O[C@H]3CO[C@H]4OCC[C@H]43)[C@@H](O)C[C@@H](Cc3ccccc3F)C(=O)N[C@H]3c4cc(Cl)ccc4OC[C@H]3O)cc2)cc(C)n1 [Compound 76] | – | – | – | – | – | – | – | 1.5 nM | 1.1 nM | 1.7 nM | 20.5 nM | > 32000 nM | 2.9 nM | –
15 | COC(=O)NC(C(=O)NC(Cc1ccc(-c2ccc(N(C)C)nc2)cc1)C(O)CC(Cc1ccccc1F)C(=O)NC1c2ccccc2OCC1O)C(C)(C)C (centres unmarked) [Compound 7] | – | – | – | – | – | – | – | 0.9 nM | 0.8 nM | 1.5 nM | 10.4 nM | > 49000 nM | 1.6 nM | > 32000 nM
16 | COC(=O)N[C@H](C(=O)N[C@@H](Cc1ccccc1)[C@@H](O)CN(Cc1ccc(-c2ccccn2)cc1)NC(=O)[C@@H](NC(=O)OC)C(C)(C)C)C(C)(C)C [ATV] | – | – | – | – | – | – | – | 3.3 nM | 62 nM | 59 nM | 16 nM | > 32000 nM | 7.6 nM | 26000 nM
17 | COC(=O)N[C@H](C(=O)N[C@@H](Cc1ccc(-c2ccc(OC)nc2)cc1)[C@@H](O)C[C@@H](Cc1cccc(OC(F)(F)F)c1)C(=O)N[C@H]1c2ccccc2OC[C@H]1O)C(C)(C)C [Compound 41] | – | – | – | – | – | – | – | 1.2 nM | 1.1 nM | 2.4 nM | 10.5 nM | > 32000 nM | 3 nM | > 32000 nM
18 | COC(=O)N[C@H](C(=O)N[C@@H](Cc1ccc(-c2ccc(OC)nc2)cc1)[C@@H](O)C[C@@H](Cc1ccccc1F)C(=O)N[C@H]1c2cc(F)cc(Cl)c2OC[C@H]1O)C(C)(C)C [Compound 56] | – | – | – | – | – | – | – | 1.2 nM | 0.7 nM | 1.4 nM | 8.4 nM | > 32000 nM | 2.6 nM | –
19 | COc1ccc(-c2ccc(C[C@H](NC(=O)O[C@H]3CO[C@H]4OCC[C@H]43)[C@@H](O)C[C@@H](Cc3ccccc3F)C(=O)N[C@H]3c4cc(Cl)cc(F)c4OC[C@H]3O)cc2)cn1 [Compound 81] | – | – | – | – | – | – | – | 2.4 nM | 1.3 nM | 2.8 nM | 13.4 nM | > 32000 nM | 4.1 nM | –
20 | COC(=O)N[C@H](C(=O)N[C@@H](Cc1ccc(-c2ccc(OC)nc2)cc1)[C@@H](O)C[C@@H](Cc1ccccc1F)C(=O)N[C@H]1c2cccc(Cl)c2OC[C@H]1O)C(C)(C)C [Compound 45] | – | – | – | – | – | – | – | 0.8 nM | 0.7 nM | 1.2 nM | 5.2 nM | > 32000 nM | 3.5 nM | –
